Test results published in article PMC5404560, “Towards Selective Mycobacterial ClpP1P2 Inhibitors with Reduced Activity against the Human Proteasome” (Antimicrobial Agents and Chemotherapy, 2017).
Values after ≈ are worked out from the molar mass of the structure shown. Where two headings read alike, the source gives them in different places. Marks after values point to notes of the source that are not given here.

Key:
[1] = system: M. smegmatis ΔprcAB; format: cell-based
[2] = system: M. tuberculosis H37Rv; assay: microbe, parasite or virus in culture; format: cell-based
[3] = system: M. tuberculosis; assay: Bactericidal activity (MBC99.9); format: cell-based; details: Mycobacterium tuberculosis; concentration required to kill 99.9% of the bacterial population
[4] = system: Mycobacterium bovis BCG; assay: microbe, parasite or virus in culture; format: cell-based; details: Mycobacterium tuberculosis variant bovis BCG, read-out: MIC50 for Mycobacterium bovis BCG
[5] = MTS cytotoxicity assay, Vero; format: cell-based; details: African green monkey; MTS assay; read-out: GI50, Vero cells
Protocol: (§1) The MTS (Promega) reduction assay was used according to manufacturer's guidelines to assess Vero (ATCC […]) and HepG2 (ATCC HB-8065) cell viability. […] Carbonyl cyanide m-chlorophenylhydrazone (CCCP) was used as a cytotoxic positive control. Cytotoxicity was determined twice in independent experiments.

[6] = system: Vero cells; assay: MTS cytotoxicity assay, Vero; format: cell-based; details: fold higher
Protocol: as §1

[7] = MTS cytotoxicity assay, HepG2; format: cell-based, human; details: human; MTS assay; read-out: GI50, HepG2 cells
Protocol: as §1

[8] = system: HepG2 cells; assay: MTS cytotoxicity assay, HepG2; format: cell-based, human; details: fold higher
Protocol: as §1

[9] = Log D (octanol/PBS); format: physicochemical; details: pH 7.4, read-out: Log D (measured at pH 7.4)
Protocol: (§2) A parallel artificial-membrane permeability assay (PAMPA) and mouse liver microsome (MLM), human liver microsome (HLM), aqueous solubility, Log D, protein binding, and cytochrome P450 2D6 and 3A4 assays were carried out at Piramal Pharma Solutions.

[10] = Thermodynamic aqueous solubility; format: physicochemical; details: thermodynamic from solid
Protocol: as §2

[11] = Parallel artificial-membrane permeability assay (PAMPA); format: in vitro ADME; details: read-out: PAMPA Pe
Protocol: as §2

[12] = Plasma protein binding, human; format: in vitro ADME; details: bound, read-out: Plasma protein binding in humans (%) (converted)
Protocol: as §2

[13] = Human liver microsome stability; format: in vitro ADME; details: liver microsomes, read-out: HLM t1/2
Protocol: as §2

[14] = Mouse liver microsome stability; format: in vitro ADME; details: liver microsomes, read-out: MLM t1/2
Protocol: as §2

[15] = biological target: T1, CYP450 3A4 (Homo sapiens, UniProt P08684); assay: Recombinant cytochrome P450 enzyme assay, 3A4; format: in vitro ADME; details: highest concentration tested 10 μM
T1 construct: Piramal Pharma Solutions (contract laboratory)
T1 sequence (P08684 whole entry): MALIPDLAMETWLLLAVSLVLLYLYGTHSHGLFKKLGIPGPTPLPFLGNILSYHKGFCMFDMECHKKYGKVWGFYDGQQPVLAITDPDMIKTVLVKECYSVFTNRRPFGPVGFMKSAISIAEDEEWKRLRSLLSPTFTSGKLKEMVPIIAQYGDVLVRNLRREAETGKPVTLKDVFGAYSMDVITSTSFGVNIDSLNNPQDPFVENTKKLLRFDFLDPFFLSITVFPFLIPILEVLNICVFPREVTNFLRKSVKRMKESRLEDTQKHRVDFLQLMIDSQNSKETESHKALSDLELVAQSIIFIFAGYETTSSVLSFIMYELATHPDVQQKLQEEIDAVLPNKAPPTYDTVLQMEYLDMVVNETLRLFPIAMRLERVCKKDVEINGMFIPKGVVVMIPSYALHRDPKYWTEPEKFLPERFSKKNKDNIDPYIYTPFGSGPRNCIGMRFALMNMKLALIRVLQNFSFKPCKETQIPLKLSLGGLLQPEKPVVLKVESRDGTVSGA
Protocol: as §2

[16] = Intravenous/oral pharmacokinetics and tissue distribution in mice; format: in vivo; details: for Vd: 10 mg/kg
Protocol: Female ICR mice (aged ∼6 to ∼8 weeks; 3 animals per time point) were used for all studies. Studies were performed as per approved internal protocols for animal care and use. Doses were administered as clear solutions in 50% polyethylene glycol 400 (PEG400) plus […] (D5W). Animals were sacrificed by overdose of CO2, and blood was collected through cardiac puncture at 5 min (10 min per os [p.o.]), 30 min, and 1, 2, 4, 8, 16, and 24 h after administration in tubes containing K3 EDTA as an anticoagulant. The samples were centrifuged, and the plasma was separated and stored at −70°C until analysis. Plasma samples were processed and analyzed by LC-tandem MS. Pharmacokinetic parameters were estimated by noncompartmental methods using WinNonlin (version 5.2; Pharsight, CA).

[17] = system: panel of 62 proteases; assay: Protease selectivity panel, overall; format: biochemical
Protocol: (§3) Protease panel testing was carried out by Reaction Biology Corporation.

[18] = biological target: Kallikrein 1 (Homo sapiens, UniProt P06870); assay: Protease panel: Kallikrein 1; format: biochemical; details: Table 6; 10-dose response, top 10 μM
Chain of Kallikrein 1 (P06870 25-262, species assumed): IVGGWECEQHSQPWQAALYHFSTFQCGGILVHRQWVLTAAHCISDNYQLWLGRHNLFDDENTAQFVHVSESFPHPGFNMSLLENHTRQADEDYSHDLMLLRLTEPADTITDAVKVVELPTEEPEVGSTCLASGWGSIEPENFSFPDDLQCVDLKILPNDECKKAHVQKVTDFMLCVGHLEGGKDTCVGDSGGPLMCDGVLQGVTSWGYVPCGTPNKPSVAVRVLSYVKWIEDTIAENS
Protocol: as §3

[19] = biological target: Kallikrein 7 (Homo sapiens, UniProt P49862); assay: Protease panel: Kallikrein 7; format: biochemical; details: Table 6; 10-dose response, top 10 μM
Chain of Kallikrein 7 (P49862 30-253, species assumed): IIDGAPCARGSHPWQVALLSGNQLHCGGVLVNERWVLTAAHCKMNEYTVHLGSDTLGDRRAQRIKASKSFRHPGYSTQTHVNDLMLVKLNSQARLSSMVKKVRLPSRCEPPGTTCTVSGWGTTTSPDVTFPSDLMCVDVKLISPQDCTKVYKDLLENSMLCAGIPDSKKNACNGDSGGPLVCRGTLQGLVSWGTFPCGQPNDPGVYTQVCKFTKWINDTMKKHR
Protocol: as §3

[20] = biological target: T2, Plasma kallikrein (Homo sapiens, UniProt P03952); assay: Protease panel: Plasma kallikrein; format: biochemical; details: Table 6; 10-dose response, top 10 μM
T2 construct: Reaction Biology Corporation (contract testing)
T2 sequence (P03952 20-638, species assumed): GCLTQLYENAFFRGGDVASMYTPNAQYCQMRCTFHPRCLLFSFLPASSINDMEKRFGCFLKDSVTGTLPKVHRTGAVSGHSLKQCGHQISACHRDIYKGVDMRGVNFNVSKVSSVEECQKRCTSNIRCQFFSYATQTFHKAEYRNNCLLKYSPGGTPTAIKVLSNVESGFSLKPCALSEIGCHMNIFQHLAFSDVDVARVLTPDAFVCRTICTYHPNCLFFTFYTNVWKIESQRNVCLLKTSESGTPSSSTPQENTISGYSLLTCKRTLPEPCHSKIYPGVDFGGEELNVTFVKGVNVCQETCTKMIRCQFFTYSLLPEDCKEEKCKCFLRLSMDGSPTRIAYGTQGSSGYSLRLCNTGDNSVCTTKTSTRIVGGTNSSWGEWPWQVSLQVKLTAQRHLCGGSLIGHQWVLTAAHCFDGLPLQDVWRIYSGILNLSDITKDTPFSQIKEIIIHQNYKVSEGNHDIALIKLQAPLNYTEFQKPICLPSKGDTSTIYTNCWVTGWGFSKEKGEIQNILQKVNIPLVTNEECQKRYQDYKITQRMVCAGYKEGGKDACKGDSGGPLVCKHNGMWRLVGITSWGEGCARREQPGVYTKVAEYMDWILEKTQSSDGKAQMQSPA
Protocol: as §3

[21] = biological target: T3, Proteinase K (Parengyodontium album, UniProt P06873); assay: Protease panel: Proteinase K; format: biochemical
T3 construct: Reaction Biology Corporation (contract testing)
T3 sequence (P06873 106-384): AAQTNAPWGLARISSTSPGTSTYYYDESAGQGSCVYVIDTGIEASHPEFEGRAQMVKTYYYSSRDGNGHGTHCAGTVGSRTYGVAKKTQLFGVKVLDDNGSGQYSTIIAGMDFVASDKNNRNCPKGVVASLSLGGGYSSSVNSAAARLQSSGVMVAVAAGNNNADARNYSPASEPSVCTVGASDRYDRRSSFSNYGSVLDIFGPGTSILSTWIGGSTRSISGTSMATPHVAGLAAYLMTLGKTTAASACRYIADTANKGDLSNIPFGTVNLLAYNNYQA
Protocol: as §3

[22] = biological target: ClpP1P2 (Mycolicibacterium smegmatis, UniProt A0R197+A0R198); assay: ClpP1P2 inhibition whole-cell RFP-SsrA reporter assay
Chain of ClpP1P2 (A0R198 4-203): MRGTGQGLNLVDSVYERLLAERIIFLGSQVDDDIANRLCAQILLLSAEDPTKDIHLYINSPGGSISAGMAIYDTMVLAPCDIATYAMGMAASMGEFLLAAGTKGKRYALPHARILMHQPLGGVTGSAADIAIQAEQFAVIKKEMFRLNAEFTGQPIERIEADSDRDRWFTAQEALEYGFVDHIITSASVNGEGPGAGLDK
Chain of ClpP1P2 (A0R197 17-218): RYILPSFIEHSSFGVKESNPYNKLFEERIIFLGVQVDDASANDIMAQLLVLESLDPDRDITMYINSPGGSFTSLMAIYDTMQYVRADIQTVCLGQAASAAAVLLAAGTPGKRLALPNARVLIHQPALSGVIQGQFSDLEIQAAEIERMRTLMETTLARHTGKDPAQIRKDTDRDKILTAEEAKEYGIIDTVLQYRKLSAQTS

[23] = biological target: HepG2 proteasome (Homo sapiens, UniProt P20618+P28074); assay: Cell-based proteasome CT-like peptidase inhibition assay (Proteasome-Glo)
Protocol: A cell-based CT-like peptidase assay was performed using the Proteasome-Glo cell-based assay reagent (Promega) according to the manufacturer's guidelines. Briefly, HepG2 cells (10^4 cells/well) were treated with the compounds indicated in the figures for 2 h, followed by incubation with the luminescent substrate for 10 min. Luminescence was detected with a Tecan M200 Pro plate reader.

SMILES: O=C(N[C@@H](Cc1ccccn1)C(=O)N[C@@H](CCc1ccccc1)B(O)O)c1cnccn1 [Compound 58, ((R)-3-phenyl-1-((S)-2-(pyrazine-2-carboxamido)-3-(pyridin-2-yl)propanamido)propyl)boronic acid]
- M. smegmatis ΔprcAB MIC50 ([1]; 24 h exposure, OD600, concentration inhibiting 50% of growth): 2.7 ± 0.5 µM
- improvement of bacterial-growth inhibition compared to compound 1 ([1]; M. smegmatis ΔprcAB): over 2 fold
- MIC50 (μM) against M. tuberculosis H37Rv ([2]; 5 days): 2.5 ± 1.3^b μM
- MIC90 (μM) against M. tuberculosis H37Rv ([2]; 5 days): 6 ± 2.8 µM (≈ 2.6 µg/mL)
- MIC90 concentration relative to MIC50 (fold higher) ([2]; H37Rv): < 3 fold
- MIC50 ([2]; Mycobacterium tuberculosis, H37RV, 120 h, 5 days, read-out: MIC50 (μM) against M. tuberculosis H37Rv): 2.5 µM
- MIC90 ([2]; Mycobacterium tuberculosis, H37RV, 120 h, 5 days, read-out: MIC90 (μM) against M. tuberculosis H37Rv): 6 µM (≈ 2.6 µg/mL)
- MIC50 ([2]; Mycobacterium tuberculosis, H37RV, read-out: MIC50-TB): 1.08 µg/mL
- MBC [3]: 50 µM (≈ 21.7 µg/mL)
- MIC50 [4]: 1.5 µM (≈ 0.65 µg/mL)
- GI50 [5]: 500 µM
- GI50 relative to M. tuberculosis growth-inhibitory potency, Vero [6]: 200 fold
- GI50 [7]: 500 µM
- GI50 relative to M. tuberculosis growth-inhibitory potency, HepG2 [8]: 200 fold
- logD [9]: 2.96
- solubility ([10]; aqueous medium at pH 7.4, aqueous buffer, pH 7.4, text, read-out: aqueous solubility): > 400 µg/mL
- solubility ([10]; aqueous solution at pH 4, aqueous buffer, thermodynamic, pH 4, read-out: Aq solubility (μg/ml) at pH 4): 422 µg/mL (≈ 973 µM)
- solubility ([10]; aqueous solution at pH 7.4, aqueous buffer, thermodynamic, pH 7.4, read-out: Aq solubility (μg/ml) at pH 7.4): 450 µg/mL (≈ 1040 µM)
- Papp [11]: 3.5 ×10⁻⁶ cm/s
- fraction unbound [12]: 0.109
- half-life [13]: > 24 min
- half-life [14]: ~8 min
- IC50 [15]: > 10 µM
- abnormal clinical signs for up to 24 h after injection ([16]; 10 mg/kg i.v.): No abnormal clinical signs were observed
- acute side effects during tail vein injection ([16]; 10 mg/kg i.v.): No acute side effects were observed
- time concentrations remained above anti-M. tuberculosis MIC50 ([16]; 10 mg/kg i.v.): approximately 4 h
- maximum concentration ([16]; 10 mg/kg i.v., plasma): 32.7 µM
- AUC0–t(last) in brain ([16]; 100 mg/kg p.o., brain): 286 ng·h/g
- AUC0–t(last) in lung ([16]; 100 mg/kg p.o., lung): 16,253 ng · h/g
- C0 ([16]; female, ICR, mouse, iv, 10 mg/kg i.v., plasma, read-out: C0 (maximum concentration)): 14200 ng/mL
- AUC(0-inf) ([16]; female, ICR, mouse, plasma, iv, 10 mg/kg i.v., read-out: AUC0-inf): 21100 ng·h/mL
- AUC(0-t) ([16]; female, ICR, mouse, plasma, iv, 10 mg/kg i.v., read-out: AUC0-t(last)): 20800 ng·h/mL
- clearance ([16]; female, ICR, mouse, plasma, iv, 10 mg/kg i.v., read-out: CL (systemic plasma clearance) (converted)): 8.33 mL/min/kg
- half-life ([16]; female, ICR, mouse, plasma, iv, 10 mg/kg i.v., read-out: T½ (elimination half-life) (converted)): 222 min
- Vd ([16]; female, ICR, mouse, plasma, iv, 10 mg/kg i.v., read-out: Vss): 2.1 L/kg
- Vd ([16]; female, ICR, mouse, plasma, iv, 10 mg/kg i.v., read-out: Vz): 2.5 L/kg
- Tmax ([16]; female, ICR, mouse, plasma, lung, brain, po, 100 mg/kg p.o., read-out: Tmax (converted)): 10 min
- bioavailability ([16]; female, ICR, mouse, plasma, oral, 10 mg/kg p.o. vs 10 mg/kg i.v., read-out: F (absolute oral bioavailability)): 14%
- AUC(0-inf) ([16]; female, ICR, mouse, plasma, po, 10 mg/kg p.o., read-out: AUC0-inf): 2870 ng·h/mL
- AUC(0-t) ([16]; female, ICR, mouse, plasma, po, 10 mg/kg p.o., read-out: AUC0-t(last)): 2840 ng·h/mL
- Tmax ([16]; female, ICR, mouse, plasma, po, 10 mg/kg p.o., read-out: Tmax (converted)): 30 min
- half-life ([16]; female, ICR, mouse, plasma, po, 10 mg/kg p.o., read-out: T½ (converted)): 234 min
- Cmax ([16]; female, ICR, mouse, po, 10 mg/kg p.o., plasma, read-out: Cmax): 798 ng/mL
- AUC(0-inf) ([16]; female, ICR, mouse, po, 100 mg/kg p.o., brain, Fig. 10B, read-out: AUC0-inf, Brain): 378 ng·h/mL
- AUC(0-t) ([16]; female, ICR, mouse, po, 100 mg/kg p.o., brain, Fig. 10B, read-out: AUC0-t(last), Brain): 286 ng·h/mL
- Cmax ([16]; female, ICR, mouse, po, 100 mg/kg p.o., brain, read-out: Cmax in brain): 93 ng/g
- Tmax ([16]; female, ICR, mouse, po, 100 mg/kg p.o., brain, read-out: Tmax, Brain): 12 min
- half-life ([16]; female, ICR, mouse, po, 100 mg/kg p.o., brain, read-out: T½, Brain (converted)): 12 min
- AUC(0-inf) ([16]; female, ICR, mouse, po, 100 mg/kg p.o., lung, Fig. 10B, read-out: AUC0-inf, Lung): 17000 ng·h/mL
- AUC(0-t) ([16]; female, ICR, mouse, po, 100 mg/kg p.o., lung, Fig. 10B, read-out: AUC0-t(last), Lung): 16300 ng·h/mL
- Cmax ([16]; female, ICR, mouse, po, 100 mg/kg p.o., lung, read-out: Cmax in lung): 3370 ng/g
- Tmax ([16]; female, ICR, mouse, po, 100 mg/kg p.o., lung, read-out: Tmax, Lung): 12 min
- half-life ([16]; female, ICR, mouse, po, 100 mg/kg p.o., lung, read-out: T½, Lung (converted)): 18 min
- AUC(0-inf) ([16]; female, ICR, mouse, po, 100 mg/kg p.o., plasma, read-out: AUC0-inf, Plasma): 23600 ng·h/mL
- AUC(0-t) ([16]; female, ICR, mouse, po, 100 mg/kg p.o., plasma, read-out: AUC0-t(last), Plasma): 22800 ng·h/mL
- Cmax ([16]; female, ICR, mouse, po, 100 mg/kg p.o., plasma, read-out: Cmax, Plasma): 6910 ng/mL
- Tmax ([16]; female, ICR, mouse, po, 100 mg/kg p.o., plasma, read-out: Tmax, Plasma): 12 min
- half-life ([16]; female, ICR, mouse, po, 100 mg/kg p.o., plasma, read-out: T½, Plasma (converted)): 12 min
- Dose linearity ([16]; p.o., plasma Cmax and AUC0–inf at 10 and 100 mg/kg): very good
- share of panel of 62 proteases inhibited with a submicromolar IC50 ([17]; 2/62): 3%
- share of panel of 62 proteases inhibited with an IC50 between 1 to 10 μM ([17]; 5/62): 8%
- share of panel of 62 proteases against which active (<10 μM) ([17]; top concentration tested 10 μM): 11%
- IC50 [18]: 6.03 µM
- IC50 [19]: 9.31 µM
- IC50 [20]: 4.4 µM
- IC50 ([21]; Table 6, 10-dose response, top 10 μM): 0.35 µM
- IC50 ([21]; supplement panel table, test and control compound): 0.352 µM
- IC50 ([22]; M. smegmatis ΔprcAB IC50 (μM) for ClpP1P2, whole-cell RFP-SsrA reporter, 3 h incubation): 1.5 ± 0.5 µM
- improvement of ClpP1P2 potency compared to compound 1 ([22]; M. smegmatis ΔprcAB reporter): 4 fold
- IC50 [23]: 367 ± 103 nM
